The results in this text go back to patent publication US8759386B2, “Pyrazole compounds as CRTH2 antagonists” (Boehringer Ingelheim International GmbH, priority 2011, dated 2014).

In one assay the target is human CRTH2 receptor (Homo sapiens (Human), UniProt Q9Y5Y4). As to the kind of experiment: CRTH2 receptor radioligand binding assay (SPA, [3H]-PGD2, CHO-K1-hCRTH2 cell membranes). The settings on record: Table 1, compounds of formula Ia″; displacement of [3H]-PGD2 from CHO-K1-hCRTH2 membranes. Here is the method: Preparation of Human CRTH2 Receptor Membranes and Radioligand Binding Assay
human CRTH2 receptor, sequence (Q9Y5Y4 whole entry): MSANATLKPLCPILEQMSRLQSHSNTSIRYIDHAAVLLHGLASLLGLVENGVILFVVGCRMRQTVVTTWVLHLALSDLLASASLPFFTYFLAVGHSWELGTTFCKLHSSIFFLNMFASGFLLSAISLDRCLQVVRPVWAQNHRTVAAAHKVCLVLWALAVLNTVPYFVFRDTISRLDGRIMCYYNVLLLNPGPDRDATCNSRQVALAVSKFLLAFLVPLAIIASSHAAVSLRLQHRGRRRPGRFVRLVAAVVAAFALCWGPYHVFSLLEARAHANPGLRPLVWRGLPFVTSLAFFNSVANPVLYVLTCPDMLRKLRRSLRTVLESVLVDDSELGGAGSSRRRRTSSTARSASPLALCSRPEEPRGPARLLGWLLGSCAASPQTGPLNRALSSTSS
The binding of CRTH2 antagonists is determined using membranes prepared from Chinese hamster ovary cells (CHO-K1 cells) transfected with the human CRTH2 receptor (CHO-K1-hCRTH2 cells, Perkin Elmer, Cat No ES-561-C). To produce cell membranes the CHO-K1-hCRTH2 cells are cultured in suspension in CHO SFMII medium supplemented with 400 μg/mL G418. The cells are harvested by centrifugation at 300 g for 10 min at room temperature. The cell pellet is resuspended in Phosphate Buffer Saline (PBS) including a protease inhibitor mix (Complete, Roche) and adjusted to a concentration of 10E7 cells/mL. The CHO-K1-hCRTH2 cells are disrupted by nitrogen […] to obtain the membrane preparation. Cell debris is removed by centrifugation (500 g at 4° C., 30 min) and the supernatant is transferred into fresh tubes followed by a second centrifugation at 40000 g for 1 hour at 4° C. to sediment the membranes. The membranes are suspended in SPA incubation buffer (50 mM Tris HCl, 10 mM MgCl2, 150 mM NaCl, 1 mM EDTA, pH 7.4) without bovine serum albumin, homogenized by passing through a single use needle (Terumo, 23G×1″), and stored in aliquots at −80° C.
The CRTH2 receptor binding assay is performed in a scintillation proximity assay (SPA) format with the radioligand [^3H]-PGD2 (Perkin Elmer, NET616000MC). CHO-K1-hCRTH2 cell membranes are again homogenized by passing through a single use needle (Terumo, 23G×1″) and diluted in SPA incubation buffer in suitable concentrations (0.5-10 μg protein/well). The SPA assay is set up in 96 well microtiter plates (Perkin Elmer, Cat No. 6005040) in SPA incubation buffer with a final volume of 200 μL per well and final concentration of 50 mM Tris-HCl, 10 mM MgCl2, 150 mM NaCl, 1 mM EDTA pH 7.4, 0.1% bovine serum albumin). The SPA assay mixture contains 60 μl of the membrane suspension, 80 μL of Wheat Germ Agglutinin coated PVT beads (GE Healthcare, RPNQ-0001, 0.3 mg/well), 40 μL of [^3H]-PGD2 diluted in SPA buffer to a final concentration of 1 nM (50 000 dpm) and 20 μL of the test compound (dissolved in dimethylsulfoxide). The SPA assay mixture is incubated for 3 h at room temperature. Bound radioactivity is determined with a scintillation counter (Micro Beta Trilux, Wallac). The binding of [^3H]-PGD2 to CHO-K1-hCRTH2 cell membranes is determined in the absence (total binding, Bo) and presence (non-specific binding, NSB) of unlabelled PGD2 (1 μM, Cayman Chemical, Cat No 12010) or a reference CRTH2 antagonist (10 μM CAY10471, Cayman Chemical, Cat No 10006735). Determination of the affinity of a test compound is calculated by subtraction of the non-specific binding (NSB) from the total binding (Bo) or the binding in the presence of the test compound (B) at a given compound concentration. The NSB value is set to 100% inhibition. The Bo-NSB value is set to 0% inhibition.
% inhibition values were obtained at a defined compound concentration, e.g. at 1 μM, % inhibition of the test compound was calculated by the formula 100−((B−NSB)*100/(Bo−NSB)). % inhibition values above 100% are founded by assay variance.
Broadly, the Ki is a dissociation constant, usually derived from enzyme kinetics or from competition with a known ligand. `Cc1nn(Cc2ccc(NC(=O)c3cc4ccccc4[nH]3)cc2Cl)c(C)c1CC(=O)O` [Compound 2] yielded a Ki of 0.5 nM. This counts as sub-nanomolar.
The same measure, in the same setting: the value for `Cc1nn(Cc2ccc(NC(=O)c3cc4ccccc4n3Cc3ccccc3)cc2F)c(C)c1CC(=O)O` [Compound 3] was 0.2 nM; that for `Cc1nn(Cc2ccc(NC(=O)c3cc4ccccc4o3)cc2Cl)c(C)c1CC(=O)O` [Compound 5] was 0.8 nM; that for `COc1ccc2oc(C(=O)Nc3ccc(Cn4nc(C)c(CC(=O)O)c4C)cc3)cc2c1` [Compound 6] was 0.6 nM.
`Cc1nn(Cc2ccc(NC(=O)c3oc4c(F)cccc4c3C)cc2)c(C)c1CC(=O)O` [Compound 7] registered an inhibition constant (Ki) of 1.3 nM.
`Cc1nn(Cc2ccc(NC(=O)c3cc4cc(Cl)ccc4o3)cc2)c(C)c1CC(=O)O` [Compound 8]: the Ki amounted to 0.3 nM. This Ki lies about 4.3-fold lower than the previous one.
On the same count and under the same terms, the value for `COc1cccc2cc(C(=O)Nc3ccc(Cn4nc(C)c(CC(=O)O)c4C)cc3)oc12` [Compound 9] was 1.2 nM; that for `Cc1nn(Cc2ccc(NC(=O)c3cc4ccccc4[nH]3)cc2)c(C)c1CC(=O)O` [Compound 10] was 0.2 nM; that for `Cc1nn(Cc2ccc(NC(=O)c3cc4ccc(F)cc4[nH]3)cc2)c(C)c1CC(=O)O` [Compound 11] was 0.2 nM.
The same measure, in the same setting: the value for `Cc1nn(Cc2ccc(NC(=O)c3cc4cc(F)ccc4[nH]3)cc2)c(C)c1CC(=O)O` [Compound 12] was 0.2 nM; that for `Cc1nn(Cc2ccc(NC(=O)c3c(C)c4ccccc4n3C)cc2)c(C)c1CC(=O)O` [Compound 13] was 63.9 nM; that for `COc1ccc2[nH]c(C(=O)Nc3ccc(Cn4nc(C)c(CC(=O)O)c4C)cc3)c(C)c2c1` [Compound 14] was 0.1 nM.
Same read-out and setting: the value for `Cc1nn(Cc2ccc(NC(=O)c3cc4ccccc4s3)cc2)c(C)c1CC(=O)O` [Compound 15] was 0.3 nM; that for `Cc1nn(Cc2ccc(NC(=O)c3cc4ccccc4n3C)cc2)c(C)c1CC(=O)O` [Compound 16] was 0.8 nM.
As for `CCn1c(C(=O)Nc2ccc(Cn3nc(C)c(CC(=O)O)c3C)cc2)cc2ccccc21` [Compound 17], the Ki turned out to be 0.4 nM.
Same read-out and setting: the value for `Cc1nn(Cc2ccc(NC(=O)c3cc4ccccc4n3Cc3ccccc3)cc2)c(C)c1CC(=O)O` [Compound 18] was less than 0.1 nM; that for `CCc1nn(Cc2ccc(NC(=O)c3cc4cc(Cl)ccc4o3)cc2)c(CC)c1CC(=O)O` [Compound 19] was 0.2 nM; that for `CCc1nn(Cc2ccc(NC(=O)c3cc4ccccc4[nH]3)cc2)c(CC)c1CC(=O)O` [Compound 20] was 0.3 nM.
The same measure, in the same setting: the value for `CCc1nn(Cc2ccc(NC(=O)c3cc4ccccc4n3C)cc2)c(CC)c1CC(=O)O` [Compound 21] was 0.3 nM.
Consider `CCc1nn(Cc2ccc(NC(=O)c3cc4ccccc4n3CC)cc2)c(CC)c1CC(=O)O` [Compound 22], for which the affinity, expressed as Ki, was 0.2 nM.
Same read-out and setting: the value for `CCc1nn(Cc2ccc(NC(=O)c3cc4cc(F)ccc4[nH]3)cc2)c(CC)c1CC(=O)O` [Compound 23] was 0.3 nM; that for `CCc1nn(Cc2ccc(NC(=O)c3c(C)c4ccccc4n3C)cc2)c(CC)c1CC(=O)O` [Compound 24] was 9.9 nM; that for `CCc1nn(Cc2ccc(NC(=O)c3cc4ccc(F)cc4[nH]3)cc2)c(CC)c1CC(=O)O` [Compound 25] was 0.2 nM.
The same measure, in the same setting: the value for `CCCn1c(C(=O)Nc2ccc(Cn3nc(C)c(CC(=O)O)c3C)cc2)cc2ccc(F)cc21` [Compound 28] was 0.1 nM.
Still for that read-out and setting: the value for `CCn1c(C(=O)Nc2ccc(Cn3nc(C)c(CC(=O)O)c3C)cc2)cc2ccc(F)cc21` [Compound 29] was 0.1 nM; that for `Cc1nn(Cc2ccc(NC(=O)c3cc4ccccc4n3C)cc2F)c(C)c1CC(=O)O` [Compound 30] was 1 nM.
Compound `CCn1c(C(=O)Nc2ccc(Cn3nc(C)c(CC(=O)O)c3C)c(F)c2)cc2ccccc21` [Compound 31] displayed a Ki of 0.2 nM.
On the same count and under the same terms, the value for `Cc1nn(Cc2ccc(NC(=O)c3oc4c(Cl)cccc4c3C)cc2)c(C)c1CC(=O)O` [Compound 33, (1-(4-[(7-Chloro-3-methylbenzofuran-2-carbonyl)amino]benzyl)-3,5-dimethyl-1H-pyrazol-4-yl)acetic acid] was 2.2 nM.
On to `CCc1c(C(=O)Nc2ccc(Cn3nc(C)c(CC(=O)O)c3C)cc2)oc2c(F)cccc12` [Compound 34], for which the affinity corresponds to a Ki of 0.3 nM.
On the same count and under the same terms, the value for `CCc1c(C(=O)Nc2ccc(Cn3nc(C)c(CC(=O)O)c3C)cc2)oc2c(F)cc(F)cc12` [Compound 35] was 0.3 nM; that for `Cc1nn(Cc2ccc(NC(=O)c3cc4ccc(Cl)cc4o3)cc2)c(C)c1CC(=O)O` [Compound 36] was 0.2 nM; that for `Cc1nn(Cc2ccc(NC(=O)c3oc4c(Cl)cccc4c3C)cc2F)c(C)c1CC(=O)O` [Compound 37] was 2.2 nM.
Compound `Cc1nn(Cc2ccc(NC(=O)c3cc4ccc(Cl)cc4o3)cc2F)c(C)c1CC(=O)O` [Compound 39] returned an inhibition constant Ki of 0.4 nM.
On the same count and under the same terms, the value for `CCn1c(C(=O)Nc2ccc(Cn3nc(C)c(CC(=O)O)c3C)c(F)c2)cc2c(F)cccc21` [Compound 40] was 0.4 nM; that for `CCn1c(C(=O)Nc2ccc(Cn3nc(C)c(CC(=O)O)c3C)c(F)c2)cc2ccc(F)cc21` [Compound 41] was 0.1 nM; that for `CCCn1c(C(=O)Nc2ccc(Cn3nc(C)c(CC(=O)O)c3C)c(F)c2)cc2ccc(F)cc21` [Compound 42] was 0.1 nM.
On the same count and under the same terms, the value for `COCc1c(C(=O)Nc2ccc(Cn3nc(C)c(CC(=O)O)c3C)c(F)c2)oc2ccccc12` [Compound 43] was 2.3 nM.
The same measure, in the same setting: the value for `Cc1nn(Cc2ccc(NC(=O)c3oc4ccc(Cl)cc4c3C)cc2F)c(C)c1CC(=O)O` [Compound 44] was 0.3 nM; that for `Cc1nn(Cc2ccc(NC(=O)c3sc4ccc(F)cc4c3C)cc2F)c(C)c1CC(=O)O` [Compound 46] was 4.5 nM; that for `CCc1c(C(=O)Nc2ccc(Cn3nc(C)c(CC(=O)O)c3C)c(F)c2)oc2ccc(F)cc12` [Compound 47] was 0.9 nM.
Consider `COc1ccc2oc(C(=O)Nc3ccc(Cn4nc(C)c(CC(=O)O)c4C)c(F)c3)c(C)c2c1` [Compound 49], for which the affinity, expressed as Ki, was 0.1 nM.
On the same count and under the same terms, the value for `Cc1nn(Cc2ccc(NC(=O)c3oc4c(F)cccc4c3C)cc2F)c(C)c1CC(=O)O` [Compound 50] was 0.4 nM.
`Cc1nn(Cc2ccc(NC(=O)c3cc4cc(F)ccc4n3C)cc2F)c(C)c1CC(=O)O` [Compound 51] yielded an inhibition constant Ki of 0.4 nM. In other words, the sub-nanomolar range.
The same measure, in the same setting: the value for `CCCc1c(C(=O)Nc2ccc(Cn3nc(C)c(CC(=O)O)c3C)c(F)c2)oc2ccc(F)cc12` [Compound 52] was 0.7 nM; that for `CCCCn1c(C(=O)Nc2ccc(Cn3nc(C)c(CC(=O)O)c3C)c(F)c2)cc2ccccc21` [Compound 53] was 0.2 nM; that for `CCCn1c(C(=O)Nc2ccc(Cn3nc(C)c(CC(=O)O)c3C)c(F)c2)cc2cc(F)ccc21` [Compound 54] was 0.2 nM.
With `CCCCn1c(C(=O)Nc2ccc(Cn3nc(C)c(CC(=O)O)c3C)c(F)c2)cc2cc(F)ccc21` [Compound 55], the inhibition constant (Ki) is 0.1 nM.
Still for that read-out and setting: the value for `CCCn1c(C(=O)Nc2ccc(Cn3nc(C)c(CC(=O)O)c3C)c(F)c2)cc2ccccc21` [Compound 56] was 0.2 nM.

The assay is the same for the next values; noted with them: Table 2, compounds of formula Ib″; displacement of [3H]-PGD2 from CHO-K1-hCRTH2 membranes.
Regarding `Cc1nn(Cc2ccc(NC(=O)c3coc4ccccc34)cc2)c(C)c1CC(=O)O` [Compound 57], affinity was put at a Ki of 8.8 nM.
On the same count and under the same terms, the value for `Cc1nn(Cc2ccc(NC(=O)c3c[nH]c4ccccc34)cc2)c(C)c1CC(=O)O` [Compound 58] was 37.2 nM.
The same measure, in the same setting: the value for `Cc1nn(Cc2ccc(NC(=O)c3csc4ccccc34)cc2)c(C)c1CC(=O)O` [Compound 59] was 3.8 nM.
